Measurements: patent US20250090510A1, “eIF4G1-eIF1 INHIBITORS AND USE THEREOF” (YEDA RESEARCH AND DEVELOPMENT CO. LTD., priority 2022, published 2025)

Tested on: HEK293T cells
Test: Cell cycle analysis, propidium iodide flow cytometry
Assay type: cell-based, human
Conditions: i14G1-10 20 uM, 16 hours; for cells in S phase / sub-G1 dead cells: i14G1-12 1 uM
Protocol: FIGS. 3A-F: i14G1-10 and i14G1-12 inhibit mRNA translation and sensitize cell survival of eIF4G1 and eIF1 depleted cells. (3A) In-vitro translation using rabbit reticulocyte lysate which was pre-incubated with different concentrations of i14G1-10 or i14G1-12 for 10 minutes followed by the addition of capped firefly luciferase mRNA. After 90 minutes at 30° C., the luminescence signal was measured and the IC50 was calculated. The data represents mean±SEM of 6 independent repeats. (3B) HEK293T cells were treated with DMSO (vehicle control), and sub-cytotoxic concentrations of i14G1-10 (20 μM) and i14G1-12 (10 μM) for 3h. Cell lysates were then subjected to sucrose gradient sedimentation to obtain polysome profiles. (3C) HEK293T cells were treated with the indicated concentrations of i14G1-10 and i14G-12 for 3 h, followed by the addition of puromycin (10 μg/ml) for 5 minutes, after which cells were lysed and analyzed by western blot using an anti-puromycin antibody and anti-GAPDH antibody that serves as a loading control. The graph represents the mean±SEM chemiluminescence signal intensity of puromycin labeling normalized to GAPDH of 3 independent experiments. The calculated IC-50 is shown. (3D) HEK293T cells were transfected with either control or eIF4G1 siRNA in the absence or presence of eIF4G1 expression plasmid. As the eIF4G1 siRNA pool is directed against the 3′UTR, which is absent from the eIF4G1 expression plasmid, the exogenous eIF4G1 is resistant to the siRNA. 48 h after transfection, cells were treated with the indicated concentrations of i14G1-10 and i14G-12 for 3 h, followed by a 5 minutes puromycin pulse as described in 3C. The graph represents the mean±SEM chemiluminescence signal intensity of puromycin labeling normalized to GAPDH of 3 independent experiments. The calculated IC-50 is shown. (3E) The graphs represent cell viability of the indicated cell lines in the presence of increasing concentrations of i14G1-10 and i14G1, analyzed by Luminescent Cell Viability Assay. (3F) Pie charts showing the cell cycle distribution of HEK293T cells treated with DMSO, i14G1-10 and i14G1-12.
Cell cycle and cell viability analyses. HEK293T were treated with DMSO, i14G1-10 (20 uM) and i14G1-12 (1 uM) for 16 hours and then were trypsinized, washed twice with ice cold PBS and fixed overnight in 70% ethanol. Then cells were washed twice with ice cold PBS and resuspended in staining buffer (0.1% triton X-100, 2 mg RNase A and […]), and incubated at 37° C. for 15 minutes. Cells were monitored by BC LSRII flow cytometer and data was analyzed using Modfit Lt Software.
This was true in breast cancer (MCF7), lung cancer (A549), colorectal cancer (HCT116), ovarian cancer (OVCAR8) and in a bone cancer sarcoma cell line (U20S). To examine whether the growth defect is associated with cell cycle progression, control and drug treated cells were subjected to DNA staining by propidium iodide and then a flow cytometry analysis to determine their distribution in the sub-G1 (dead cells), G1, S and G2/M phases of the cell cycle.

Structure (SMILES)	cells in G2/M phase of the cell cycle	cells in S phase	sub-G1 dead cells
O=C(/C=C/Sc1ccc(C(F)(F)F)cn1)c1ccccc1 [i14G1-10]	dramatic accumulation of cells in the G2/M phase	reduction in S	elevation in sub-G1 dead cells
Cn1ccnc1S/C(=C/C=C(C#N)C#N)c1ccc(Cl)cc1 [i14G1-12]	–	reduction in S	elevation in sub-G1 dead cells
